Measured values reported in patent US10189853B2, “Conformationally restricted 4-substituted-2,6-dimethylfuro[2,3-d]pyrimidines as anti-tumor agents” (DUQUESNE UNIVERSITY OF THE HOLY SPIRIT, priority 2014, dated 2019).

Columns and labels:
[1] = molecular target: EGFR (Homo sapiens (Human), UniProt P00533); assay: EGFR kinase inhibition, phosphotyrosine ELISA cytoblot; format: cell-based; conditions: A431 cells
Procedure: (§1) Cells used were tumor cell lines naturally expressing high levels of EGFR (A431), VEGFR-2 (U251), and PDGFR-β (SH-SYSY). […] The reaction was stopped and cells were permeabilized by quickly removing the media from the cells and adding ice-cold Tris-buffered saline (TBS) containing 0.05% Triton X-100, protease inhibitor cocktail and tyrosine phosphatase inhibitor cocktail. The TBS solution was then removed and cells fixed to the plate for 30 min at 60° C. and further incubation in 70% ethanol for an additional 30 min. Cells were further exposed to block (TBS with 1% BSA) for 1 h, washed, and then a horseradish peroxidase (HRP)-conjugated phosphotyrosine (PY) antibody was added overnight.

[2] = molecular target: VEGFR-2 (Homo sapiens (Human), UniProt P35968); assay: VEGFR-2 kinase inhibition, phosphotyrosine ELISA cytoblot; format: cell-based; conditions: U251 cells, phosphotyrosine ELISA
Procedure: as §1

[3] = test system: A431 cancer cells; assay: A431 cytotoxicity (cell proliferation); format: cell-based, human; conditions: Homo sapiens, A-431
[4] = test system: cellular microtubules in A-10 cells; assay: Microtubule depolymerization, indirect immunofluorescence; format: cell-based; conditions: in words
[5] = test system: MDA-435 cells; assay: Antiproliferative SRB assay; format: cell-based; conditions: MDA435, 48 h, read-out: IC50 ± SD in MDA-435 cells
[6] = test system: HeLa cells; assay: Antiproliferative SRB assay; format: cell-based; conditions: Homo sapiens, HeLa, 48 h, read-out: IC50 ± SD in HeLa
[7] = test system: WTβ3 cells (HeLa overexpressing βIII tubulin); assay: Antiproliferative SRB assay; format: cell-based
[8] = test system: SKOV3 cells; assay: Antiproliferative SRB assay; format: cell-based; conditions: Homo sapiens, SK-OV-3, 48 h, read-out: IC50 ± SD in SKOV3 cells
[9] = test system: EKVX; assay: NCI 60 cell line panel; format: cell-based; conditions: Homo sapiens, NSCLC
[10] = test system: HOP-62; assay: NCI 60 cell line panel; format: cell-based; conditions: Homo sapiens, NSCLC
[11] = test system: HOP-92; assay: NCI 60 cell line panel; format: cell-based; conditions: Homo sapiens, NSCLC
[12] = test system: NCI-H23; assay: NCI 60 cell line panel; format: cell-based; conditions: Homo sapiens, NSCLC
[13] = test system: NCI-H460; assay: NCI 60 cell line panel; format: cell-based; conditions: Homo sapiens, NSCLC
[14] = test system: NCI-H522; assay: NCI 60 cell line panel; format: cell-based; conditions: Homo sapiens, NSCLC
[15] = test system: SF-268; assay: NCI 60 cell line panel; format: cell-based; conditions: Homo sapiens, CNS Cancer
[16] = test system: SF-295; assay: NCI 60 cell line panel; format: cell-based; conditions: Homo sapiens, CNS Cancer
[17] = test system: SF-539; assay: NCI 60 cell line panel; format: cell-based; conditions: Homo sapiens, CNS Cancer
[18] = test system: SNB-19; assay: NCI 60 cell line panel; format: cell-based; conditions: Homo sapiens, CNS Cancer
[19] = test system: SNB-75; assay: NCI 60 cell line panel; format: cell-based; conditions: Homo sapiens, CNS Cancer
[20] = test system: U251; assay: NCI 60 cell line panel; format: cell-based; conditions: Homo sapiens, U-251, CNS Cancer
[21] = test system: IGROV1; assay: NCI 60 cell line panel; format: cell-based; conditions: Homo sapiens, IGROV-1, Ovarian cancer
[22] = test system: OVCAR-3; assay: NCI 60 cell line panel; format: cell-based; conditions: Homo sapiens, Ovarian cancer
[23] = test system: OVCAR-4; assay: NCI 60 cell line panel; format: cell-based; conditions: Homo sapiens, Ovarian cancer
[24] = test system: OVCAR-5; assay: NCI 60 cell line panel; format: cell-based; conditions: Homo sapiens, Ovarian cancer
[25] = test system: OVCAR-8; assay: NCI 60 cell line panel; format: cell-based; conditions: Homo sapiens, Ovarian cancer
[26] = test system: NCI/ADR-RES; assay: NCI 60 cell line panel; format: cell-based; conditions: Homo sapiens, Ovarian cancer
[27] = test system: SK-OV-3; assay: NCI 60 cell line panel; format: cell-based; conditions: Homo sapiens, Ovarian cancer
[28] = test system: LOX IMVI; assay: NCI 60 cell line panel; format: cell-based; conditions: Homo sapiens, Melanoma
[29] = test system: M14; assay: NCI 60 cell line panel; format: cell-based; conditions: Homo sapiens, Melanoma
[30] = test system: MDA-MB-435; assay: NCI 60 cell line panel; format: cell-based; conditions: Homo sapiens, Melanoma
[31] = test system: SK-MEL-2; assay: NCI 60 cell line panel; format: cell-based; conditions: Homo sapiens
[32] = test system: SK-MEL-5; assay: NCI 60 cell line panel; format: cell-based; conditions: Homo sapiens, Melanoma
[33] = test system: UACC-62; assay: NCI 60 cell line panel; format: cell-based; conditions: Homo sapiens, Melanoma
[34] = test system: 786-0; assay: NCI 60 cell line panel; format: cell-based; conditions: Homo sapiens
[35] = test system: ACHN; assay: NCI 60 cell line panel; format: cell-based; conditions: Homo sapiens, Renal Cancer
[36] = test system: CAKI-1; assay: NCI 60 cell line panel; format: cell-based; conditions: Homo sapiens, Renal Cancer
[37] = test system: RXF 393; assay: NCI 60 cell line panel; format: cell-based; conditions: Homo sapiens, Renal Cancer
[38] = test system: SN 12C; assay: NCI 60 cell line panel; format: cell-based; conditions: Homo sapiens, SN12C, Renal Cancer
[39] = test system: TK-10; assay: NCI 60 cell line panel; format: cell-based; conditions: Homo sapiens, Renal Cancer
[40] = test system: COLO 205; assay: NCI 60 cell line panel; format: cell-based; conditions: Homo sapiens, Colon Cancer
[41] = test system: HCT-116; assay: NCI 60 cell line panel; format: cell-based; conditions: Homo sapiens, Colon Cancer
[42] = test system: HCT-15; assay: NCI 60 cell line panel; format: cell-based; conditions: Homo sapiens, Colon Cancer
[43] = test system: HT29; assay: NCI 60 cell line panel; format: cell-based; conditions: Homo sapiens, HT-29, Colon Cancer
[44] = test system: KM12; assay: NCI 60 cell line panel; format: cell-based; conditions: Homo sapiens, Colon Cancer
[45] = test system: SW-620; assay: NCI 60 cell line panel; format: cell-based; conditions: Homo sapiens, Colon Cancer
[46] = test system: PC-3; assay: NCI 60 cell line panel; format: cell-based; conditions: Homo sapiens, Prostate Cancer
[47] = test system: DU-145; assay: NCI 60 cell line panel; format: cell-based; conditions: Homo sapiens, Prostate Cancer
[48] = test system: MCF7; assay: NCI 60 cell line panel; format: cell-based; conditions: Homo sapiens, Breast Cancer
[49] = test system: MDA-MB-231/ATCC; assay: NCI 60 cell line panel; format: cell-based; conditions: Homo sapiens, Breast Cancer
[50] = test system: HS 578T; assay: NCI 60 cell line panel; format: cell-based; conditions: Homo sapiens, Breast Cancer
[51] = test system: BT-549; assay: NCI 60 cell line panel; format: cell-based; conditions: Homo sapiens
[52] = test system: MDA-MB-468; assay: NCI 60 cell line panel; format: cell-based; conditions: Homo sapiens, Breast Cancer
[53] = test system: CCRF-CEM; assay: NCI 60 cell line panel; format: cell-based; conditions: Homo sapiens, Leukemia
[54] = test system: HL-60(TB); assay: NCI 60 cell line panel; format: cell-based; conditions: Homo sapiens, Leukemia
[55] = test system: K-562; assay: NCI 60 cell line panel; format: cell-based; conditions: Homo sapiens, K562, Leukemia
[56] = test system: MOLT-4; assay: NCI 60 cell line panel; format: cell-based; conditions: Homo sapiens, Leukemia
[57] = test system: SR; assay: NCI 60 cell line panel; format: cell-based; conditions: Homo sapiens, Leukemia
[58] = test system: M6/6 cells (SK-OV-3 expressing Pgp); assay: Antiproliferative SRB assay; conditions: M6/6 (Pgp) vs SKOV3

Chain of EGFR (P00533 25-1210): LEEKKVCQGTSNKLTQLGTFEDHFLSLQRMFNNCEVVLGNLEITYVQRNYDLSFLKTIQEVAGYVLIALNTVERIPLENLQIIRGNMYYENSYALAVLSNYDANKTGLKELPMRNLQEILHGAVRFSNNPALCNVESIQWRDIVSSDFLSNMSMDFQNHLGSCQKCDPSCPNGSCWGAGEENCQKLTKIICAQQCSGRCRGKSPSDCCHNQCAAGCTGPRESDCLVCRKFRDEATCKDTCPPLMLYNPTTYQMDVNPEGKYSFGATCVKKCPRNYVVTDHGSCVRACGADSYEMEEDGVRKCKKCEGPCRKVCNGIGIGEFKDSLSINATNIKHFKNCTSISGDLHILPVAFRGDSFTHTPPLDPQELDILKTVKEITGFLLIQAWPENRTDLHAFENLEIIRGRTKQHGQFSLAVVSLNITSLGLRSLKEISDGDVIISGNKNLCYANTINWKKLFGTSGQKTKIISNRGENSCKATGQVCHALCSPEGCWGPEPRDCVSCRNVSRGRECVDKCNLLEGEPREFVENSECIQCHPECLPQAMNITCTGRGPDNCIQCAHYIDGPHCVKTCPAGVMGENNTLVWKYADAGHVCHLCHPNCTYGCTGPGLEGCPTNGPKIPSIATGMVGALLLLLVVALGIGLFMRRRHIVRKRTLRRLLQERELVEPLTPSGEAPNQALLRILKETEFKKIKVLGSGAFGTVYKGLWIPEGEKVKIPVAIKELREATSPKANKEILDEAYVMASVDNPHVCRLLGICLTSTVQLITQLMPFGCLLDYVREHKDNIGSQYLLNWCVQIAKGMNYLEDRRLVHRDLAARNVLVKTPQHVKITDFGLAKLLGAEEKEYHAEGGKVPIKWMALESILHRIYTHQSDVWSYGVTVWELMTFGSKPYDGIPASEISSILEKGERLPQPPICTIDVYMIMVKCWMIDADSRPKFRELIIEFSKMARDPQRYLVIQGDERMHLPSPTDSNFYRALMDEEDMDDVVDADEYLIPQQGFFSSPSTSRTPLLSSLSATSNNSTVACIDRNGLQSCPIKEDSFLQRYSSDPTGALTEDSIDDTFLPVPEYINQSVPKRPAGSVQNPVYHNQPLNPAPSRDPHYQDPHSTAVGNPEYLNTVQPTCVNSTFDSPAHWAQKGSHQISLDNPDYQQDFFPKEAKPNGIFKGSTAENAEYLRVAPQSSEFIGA
Chain of VEGFR-2 (P35968 20-1356): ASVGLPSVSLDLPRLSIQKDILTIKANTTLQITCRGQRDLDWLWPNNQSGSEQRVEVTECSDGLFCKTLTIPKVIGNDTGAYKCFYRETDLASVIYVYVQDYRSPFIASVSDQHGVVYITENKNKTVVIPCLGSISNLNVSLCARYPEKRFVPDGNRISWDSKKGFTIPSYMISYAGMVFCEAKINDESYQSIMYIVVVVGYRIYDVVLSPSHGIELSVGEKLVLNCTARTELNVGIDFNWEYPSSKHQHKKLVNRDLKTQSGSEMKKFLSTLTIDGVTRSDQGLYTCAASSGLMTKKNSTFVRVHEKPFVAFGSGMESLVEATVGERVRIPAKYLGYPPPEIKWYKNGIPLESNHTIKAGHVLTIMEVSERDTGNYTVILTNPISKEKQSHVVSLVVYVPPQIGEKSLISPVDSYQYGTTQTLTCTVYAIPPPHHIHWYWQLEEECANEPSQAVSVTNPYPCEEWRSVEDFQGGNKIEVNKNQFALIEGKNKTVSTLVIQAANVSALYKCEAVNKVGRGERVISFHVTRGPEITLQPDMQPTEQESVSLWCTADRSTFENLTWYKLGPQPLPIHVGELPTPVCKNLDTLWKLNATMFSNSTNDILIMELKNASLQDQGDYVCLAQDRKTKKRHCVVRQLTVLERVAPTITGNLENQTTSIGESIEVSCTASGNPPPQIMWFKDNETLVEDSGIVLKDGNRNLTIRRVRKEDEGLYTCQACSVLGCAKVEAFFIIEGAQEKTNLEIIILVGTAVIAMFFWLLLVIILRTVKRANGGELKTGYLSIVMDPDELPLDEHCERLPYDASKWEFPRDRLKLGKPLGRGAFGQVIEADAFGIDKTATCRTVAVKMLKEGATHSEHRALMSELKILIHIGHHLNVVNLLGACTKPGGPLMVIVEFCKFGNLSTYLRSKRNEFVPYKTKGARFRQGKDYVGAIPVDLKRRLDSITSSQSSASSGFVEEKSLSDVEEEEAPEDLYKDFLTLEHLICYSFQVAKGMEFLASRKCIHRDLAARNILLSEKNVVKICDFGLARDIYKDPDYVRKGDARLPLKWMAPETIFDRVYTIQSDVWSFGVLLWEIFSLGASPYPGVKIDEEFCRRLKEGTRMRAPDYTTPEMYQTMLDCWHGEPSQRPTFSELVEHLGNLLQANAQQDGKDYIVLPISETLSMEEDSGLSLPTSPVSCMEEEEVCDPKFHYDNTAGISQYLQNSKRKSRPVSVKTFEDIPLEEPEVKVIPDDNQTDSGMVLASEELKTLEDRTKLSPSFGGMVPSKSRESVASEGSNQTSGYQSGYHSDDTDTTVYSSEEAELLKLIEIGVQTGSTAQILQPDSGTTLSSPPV

Structure (SMILES): Cc1nc(N(C)c2ccc3c(c2)CCO3)c2cc(C)oc2n1 [Compound 6, N-(2,3-dihydro-1-benzofuran-5-yl)-N,2,6-trimethylfuro[2,3-d]pyrimidin-4-amine]
- IC50 [1]: 0.226 ± 0.0502 µM
- IC50 [2]: 0.0067 ± 0.00081 µM
- IC50 [3]: 0.0383 ± 0.0042 µM
- effect on cellular microtubules [4]: dose-dependent loss of cellular microtubules
- IC50 [5]: 0.0962 ± 0.013 µM
- IC50 [6]: 0.105 ± 0.0058 µM
- IC50 ([7]; Homo sapiens, HeLa, SRB, 48 h, read-out: IC50 ± SD in WTβ3): 0.094 ± 0.007 µM
- Rr value (relative resistance) ([7]; WTβ3 vs HeLa): 0.9
- IC50 [8]: 0.12 ± 0.005 µM
- GI50 [9]: 0.07 µM
- GI50 [10]: 0.0396 µM
- GI50 [11]: 0.0458 µM
- GI50 [12]: 0.0439 µM
- GI50 [13]: 0.042 µM
- GI50 [14]: 0.0129 µM
- GI50 [15]: 0.0139 µM
- GI50 [16]: 0.0305 µM
- GI50 [17]: 0.0316 µM
- GI50 [18]: 0.0565 µM
- GI50 [19]: 0.0304 µM
- GI50 [20]: 0.0397 µM
- GI50 [21]: 0.0629 µM
- GI50 [22]: 0.0245 µM
- GI50 [23]: 0.0834 µM
- GI50 [24]: 0.262 µM
- GI50 [25]: 0.063 µM
- GI50 [26]: 0.0265 µM
- GI50 [27]: 0.0376 µM
- GI50 [28]: 0.0456 µM
- GI50 [29]: 0.0348 µM
- GI50 [30]: 0.014 µM
- GI50 [31]: 0.0264 µM
- GI50 [32]: 0.0314 µM
- GI50 [33]: 0.0613 µM
- GI50 [34]: 0.0804 µM
- GI50 [35]: 0.0642 µM
- GI50 [36]: 0.0401 µM
- GI50 [37]: 0.0212 µM
- GI50 [38]: 0.0972 µM
- GI50 [39]: 0.0502 µM
- GI50 [40]: 0.0403 µM
- GI50 [41]: 0.0451 µM
- GI50 [42]: 0.0389 µM
- GI50 [43]: 0.0324 µM
- GI50 [44]: 0.0401 µM
- GI50 [45]: 0.0416 µM
- GI50 [46]: 0.0522 µM
- GI50 [47]: 0.0441 µM
- GI50 [48]: 0.0402 µM
- GI50 [49]: 0.148 µM
- GI50 [50]: 0.031 µM
- GI50 [51]: 0.0772 µM
- GI50 [52]: 0.0221 µM
- GI50 [53]: 0.0581 µM
- GI50 [54]: 0.0276 µM
- GI50 [55]: 0.0317 µM
- GI50 [56]: 0.0767 µM
- GI50 [57]: 0.0366 µM
- Rr value (relative resistance) [58]: 1.3
